Read-outs that look alike come from different tables or passages of the source.
Tests used:
CYP2D6 = CYP2D6 (Homo sapiens, UniProt P10635); experiment: CYP inhibition; format: in vitro ADME
Adenosine A1 respetor = molecular target: T1, Adenosine A1 respetor (Homo sapiens, UniProt P30542); experiment: Off-target screening (CEREP); format: binding; settings: read-out: percent inhibition
T1 construct: purchased Eurofins CEREP SA
T1 sequence (P30542 1-326): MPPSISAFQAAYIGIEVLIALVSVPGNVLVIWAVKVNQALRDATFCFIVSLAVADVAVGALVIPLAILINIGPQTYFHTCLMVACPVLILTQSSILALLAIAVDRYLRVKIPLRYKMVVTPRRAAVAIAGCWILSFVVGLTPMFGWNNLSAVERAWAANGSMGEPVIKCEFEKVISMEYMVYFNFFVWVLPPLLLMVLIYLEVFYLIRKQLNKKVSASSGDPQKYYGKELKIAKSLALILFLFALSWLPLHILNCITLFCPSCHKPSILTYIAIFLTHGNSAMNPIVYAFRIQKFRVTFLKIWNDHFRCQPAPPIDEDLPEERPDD
Description: (§1) Supplementary Table 1 │ Off-target activity screening f or MCP compou nds […]
(§2) The assays given in the table above were conducted at Eurofins CEREP S A (Celle-Lévescault, France) and were run as single point measurements in duplicates in the presence of 10 µ M of the test compound and reported as percent inhibition of the radioligand signal or control enzymatic activity. n.d., not

Estrogen receptor alpha = molecular target: T2, Estrogen receptor alpha (Homo sapiens, UniProt P03372); experiment: Off-target screening (CEREP); format: binding; settings: read-out: percent inhibition
T2 construct: purchased Eurofins CEREP SA
Description: as §1, §2

5-HT transporter = molecular target: T3, 5-HT transporter (Homo sapiens, UniProt P31645); experiment: Off-target screening (CEREP); format: binding; settings: read-out: percent inhibition
T3 construct: purchased Eurofins CEREP SA
Description: as §1, §2

Dopamine D2 receptor = molecular target: T4, Dopamine D2 receptor (Homo sapiens, UniProt P14416); experiment: Off-target screening (CEREP); format: binding; settings: read-out: percent inhibition
T4 construct: purchased Eurofins CEREP SA
Description: as §1, §2

Adenosine A3 respetor = molecular target: T5, Adenosine A3 respetor (Homo sapiens, UniProt P0DMS8); experiment: Off-target screening (CEREP); format: binding; settings: read-out: percent inhibition
T5 construct: purchased Eurofins CEREP SA
T5 sequence (P0DMS8 1-318): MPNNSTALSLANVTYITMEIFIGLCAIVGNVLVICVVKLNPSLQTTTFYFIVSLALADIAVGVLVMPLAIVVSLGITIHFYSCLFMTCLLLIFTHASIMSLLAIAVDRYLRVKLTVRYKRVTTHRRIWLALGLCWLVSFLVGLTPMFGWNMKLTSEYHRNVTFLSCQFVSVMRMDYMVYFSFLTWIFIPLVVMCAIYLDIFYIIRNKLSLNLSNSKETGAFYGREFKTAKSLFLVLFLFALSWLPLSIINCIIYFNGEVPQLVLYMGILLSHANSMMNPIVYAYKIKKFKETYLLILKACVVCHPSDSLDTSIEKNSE
Description: as §1, §2

Muscarinic receptor M1 = molecular target: T6, Muscarinic receptor M1 (Homo sapiens, UniProt P11229); experiment: Off-target screening (CEREP); format: binding; settings: read-out: percent inhibition
T6 construct: purchased Eurofins CEREP SA
T6 sequence (P11229 1-460): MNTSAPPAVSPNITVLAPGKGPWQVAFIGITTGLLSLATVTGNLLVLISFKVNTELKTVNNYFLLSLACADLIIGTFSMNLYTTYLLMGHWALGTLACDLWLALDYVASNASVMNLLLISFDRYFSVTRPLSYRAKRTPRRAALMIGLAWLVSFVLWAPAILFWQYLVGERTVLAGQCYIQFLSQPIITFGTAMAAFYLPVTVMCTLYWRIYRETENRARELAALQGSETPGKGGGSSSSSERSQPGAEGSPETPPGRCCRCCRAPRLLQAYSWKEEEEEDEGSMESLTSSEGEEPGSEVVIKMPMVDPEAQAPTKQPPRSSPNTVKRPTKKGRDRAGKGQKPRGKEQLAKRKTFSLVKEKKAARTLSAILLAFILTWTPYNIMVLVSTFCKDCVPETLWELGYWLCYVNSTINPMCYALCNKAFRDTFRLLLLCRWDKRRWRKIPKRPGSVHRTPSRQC
Description: as §1, §2

[1] = system: Nicotinic receptor, neuronal; experiment: Off-target screening (CEREP); format: binding, human; settings: 10 µM, duplicates
Description: as §1, §2

[2] = system: Nicotinic receptor, muscle; experiment: Off-target screening (CEREP); format: binding, human; settings: 10 µM, duplicates
Description: as §1, §2

P. aeruginosa ATCC 27853 = experiment: microbe, parasite or virus in culture; settings: for MIC: Pseudomonas aeruginosa; for RO7223280 MIC 100%: P. aeruginosa ATCC 27853, read at 100%
How it was run: (§3)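 Broth microdilution per CLSI M07/M100, with inocula diluted from a 0.5 McFarland suspension in CAMHB, or LB for A. baylyi. MIC was read as the lowest concentration inhibiting growth by eye or beyond which OD600 stopped decreasing.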

[3] = system: K. pneumoniae ATCC 700603; experiment: microbe, parasite or virus in culture; settings: for MIC: Klebsiella pneumoniae; for RO7223280 MIC 100%: K. pneumoniae ATCC 700603, read at 100%
How it was run: as §3

CYP2C9 = CYP2C9 (Homo sapiens, UniProt P11712); experiment: CYP inhibition; format: in vitro ADME
Chain of CYP2C9 (P11712 whole entry): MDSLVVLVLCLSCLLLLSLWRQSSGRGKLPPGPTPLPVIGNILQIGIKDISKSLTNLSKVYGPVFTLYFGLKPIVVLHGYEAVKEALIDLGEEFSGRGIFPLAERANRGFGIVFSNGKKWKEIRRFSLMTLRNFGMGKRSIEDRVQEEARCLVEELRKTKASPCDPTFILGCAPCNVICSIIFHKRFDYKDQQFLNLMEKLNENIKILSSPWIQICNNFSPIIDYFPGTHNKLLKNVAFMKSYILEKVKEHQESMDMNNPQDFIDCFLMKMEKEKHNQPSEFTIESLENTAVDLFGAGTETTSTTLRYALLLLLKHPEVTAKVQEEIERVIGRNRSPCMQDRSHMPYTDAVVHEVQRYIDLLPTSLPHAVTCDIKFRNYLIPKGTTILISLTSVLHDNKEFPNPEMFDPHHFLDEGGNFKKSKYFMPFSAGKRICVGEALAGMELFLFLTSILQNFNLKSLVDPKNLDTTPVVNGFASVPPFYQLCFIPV

T2 sequence (P03372 whole entry): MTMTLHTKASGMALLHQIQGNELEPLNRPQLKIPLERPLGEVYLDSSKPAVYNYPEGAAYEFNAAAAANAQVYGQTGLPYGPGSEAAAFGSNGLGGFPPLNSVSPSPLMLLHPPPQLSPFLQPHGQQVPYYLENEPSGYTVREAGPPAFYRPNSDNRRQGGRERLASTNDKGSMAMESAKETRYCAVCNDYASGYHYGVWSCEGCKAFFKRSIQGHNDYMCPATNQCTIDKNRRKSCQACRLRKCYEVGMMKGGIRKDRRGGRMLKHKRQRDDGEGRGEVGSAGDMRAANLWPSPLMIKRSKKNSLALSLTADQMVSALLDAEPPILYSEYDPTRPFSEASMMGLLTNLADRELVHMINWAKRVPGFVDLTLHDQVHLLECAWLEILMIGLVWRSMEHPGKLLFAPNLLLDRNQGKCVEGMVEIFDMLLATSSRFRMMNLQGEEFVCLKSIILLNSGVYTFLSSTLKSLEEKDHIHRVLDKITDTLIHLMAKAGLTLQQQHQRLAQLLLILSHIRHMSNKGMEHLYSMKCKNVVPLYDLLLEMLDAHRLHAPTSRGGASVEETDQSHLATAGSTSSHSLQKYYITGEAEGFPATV
T3 sequence (P31645 whole entry): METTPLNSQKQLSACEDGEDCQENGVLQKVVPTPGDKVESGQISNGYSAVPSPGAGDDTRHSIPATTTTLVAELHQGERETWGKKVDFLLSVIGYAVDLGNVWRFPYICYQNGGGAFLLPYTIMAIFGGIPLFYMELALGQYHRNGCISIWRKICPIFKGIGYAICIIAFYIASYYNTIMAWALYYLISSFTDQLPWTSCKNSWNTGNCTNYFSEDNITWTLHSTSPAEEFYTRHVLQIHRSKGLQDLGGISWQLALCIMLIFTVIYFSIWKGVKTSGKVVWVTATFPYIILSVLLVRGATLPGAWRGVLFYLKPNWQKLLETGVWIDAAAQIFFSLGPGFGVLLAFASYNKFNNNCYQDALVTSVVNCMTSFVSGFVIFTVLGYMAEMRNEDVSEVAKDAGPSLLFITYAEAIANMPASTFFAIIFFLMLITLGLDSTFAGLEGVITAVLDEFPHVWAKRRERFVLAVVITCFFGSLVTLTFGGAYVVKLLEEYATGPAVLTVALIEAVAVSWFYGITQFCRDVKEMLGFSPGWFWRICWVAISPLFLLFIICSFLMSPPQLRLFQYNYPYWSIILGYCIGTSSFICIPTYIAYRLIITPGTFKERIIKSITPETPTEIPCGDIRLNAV
Chain of CYP2D6 (P10635 whole entry): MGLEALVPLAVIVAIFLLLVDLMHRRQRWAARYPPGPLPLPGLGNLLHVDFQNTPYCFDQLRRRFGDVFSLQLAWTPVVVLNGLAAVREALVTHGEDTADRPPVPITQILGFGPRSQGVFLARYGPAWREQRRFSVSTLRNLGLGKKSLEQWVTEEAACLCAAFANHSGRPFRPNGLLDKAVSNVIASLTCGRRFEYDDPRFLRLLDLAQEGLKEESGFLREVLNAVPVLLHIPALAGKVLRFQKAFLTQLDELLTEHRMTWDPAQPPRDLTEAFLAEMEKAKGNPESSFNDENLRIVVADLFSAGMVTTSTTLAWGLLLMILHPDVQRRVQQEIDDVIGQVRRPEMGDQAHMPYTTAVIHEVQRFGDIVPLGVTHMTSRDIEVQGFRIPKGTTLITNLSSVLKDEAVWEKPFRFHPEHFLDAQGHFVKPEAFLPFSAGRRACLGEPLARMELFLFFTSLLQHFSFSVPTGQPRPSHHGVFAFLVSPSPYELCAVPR
T4 sequence (P14416 whole entry): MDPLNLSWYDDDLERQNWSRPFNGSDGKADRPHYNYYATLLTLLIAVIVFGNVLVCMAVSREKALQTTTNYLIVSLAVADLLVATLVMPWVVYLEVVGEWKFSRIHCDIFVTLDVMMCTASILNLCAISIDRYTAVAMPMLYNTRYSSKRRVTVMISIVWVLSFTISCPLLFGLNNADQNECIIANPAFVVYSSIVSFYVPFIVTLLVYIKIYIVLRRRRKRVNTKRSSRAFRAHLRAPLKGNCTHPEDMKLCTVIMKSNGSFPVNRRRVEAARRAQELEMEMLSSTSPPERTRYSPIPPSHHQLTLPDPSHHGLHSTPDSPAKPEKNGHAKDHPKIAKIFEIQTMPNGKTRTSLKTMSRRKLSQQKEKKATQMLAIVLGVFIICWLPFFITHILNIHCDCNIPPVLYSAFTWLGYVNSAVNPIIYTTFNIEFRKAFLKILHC

CN1C(=O)[C@H](CCCCN)NC(=O)[C@H](CCCN)NCc2cccnc2Sc2c(Cl)ccc(-c3ccc(C(=O)O)cc3)c2CNC(=O)[C@@H]1Cc1c[nH]c2ccccc12 [RO7202110]
CYP inh. (2D6) (CYP2D6): >50 (3A4) >50 (2C9) >50 (2D6) μM | inhibition at 10 µM (Adenosine A1 respetor; 10 µM, duplicates): 1% | inhibition at 10 µM (Estrogen receptor alpha; 10 µM, duplicates): -7% | inhibition at 10 µM (5-HT transporter; 10 µM, duplicates): 13% | inhibition at 10 µM (Dopamine D2 receptor; 10 µM, duplicates): 28% | inhibition at 10 µM (Adenosine A3 respetor; 10 µM, duplicates): 9% | inhibition at 10 µM (Muscarinic receptor M1; 10 µM, duplicates): -6% | percent inhibition [1]: 4% | percent inhibition [2]: 11% | MIC (P. aeruginosa ATCC 27853; ATCC27853, CAMHB, mode of at least three replicates (RO7036668 one replicate)): > 64 µg/mL | MIC ([3]; ATCC700603, CAMHB, mode of at least three replicates (RO7036668 one replicate)): > 64 µg/mL | MIC 100% ([3]; Study LGC294355): >64 µg/mL | MIC 100% ([3]; Study LGC295147): >64 µg/mL | MIC 100% ([3]; Study LGC299544): >64 µg/mL | MIC 100% ([3]; Study LGC308175): >64 µg/mL | CYP inh. (2C9) (CYP2C9): >50 (3A4) >50 (2C9) >50 (2D6) μM | Ames (Ames): Negative

CN1C(=O)[C@H](CCCCN)NC(=O)[C@H](CCCN)NCc2cccnc2Sc2cccc(-c3ccc(C(=O)O)cc3)c2CNC(=O)[C@@H]1Cc1c[nH]c2ccccc12 [zosurabalpin]
CYP inh. (2D6) (CYP2D6): >50 (3A4) >50 (2C9) >50 (2D6) μM | inhibition at 10 µM (Adenosine A1 respetor): -7% | inhibition at 10 µM (Estrogen receptor alpha): 7% | inhibition at 10 µM (5-HT transporter): 2% | inhibition at 10 µM (Dopamine D2 receptor): 14% | inhibition at 10 µM (Adenosine A3 respetor): 2% | inhibition at 10 µM (Muscarinic receptor M1): -3% | percent inhibition [1]: -11% | percent inhibition [2]: -16% | RO7223280 MIC 100% (P. aeruginosa ATCC 27853; Study LGC296813): >64 µg/mL | RO7223280 MIC 100% (P. aeruginosa ATCC 27853; Study LGC299544): >64 µg/mL | RO7223280 MIC 100% (P. aeruginosa ATCC 27853; Study LGC308175): >64 µg/mL | MIC (P. aeruginosa ATCC 27853; ATCC27853): > 64 µg/mL | RO7223280 MIC 100% ([3]; Study LGC296813): >64 µg/mL | RO7223280 MIC 100% ([3]; Study LGC299544): >64 µg/mL | RO7223280 MIC 100% ([3]; Study LGC308175): >64 µg/mL | MIC ([3]; ATCC700603): > 64 µg/mL | CYP inh. (2C9) (CYP2C9): >50 (3A4) >50 (2C9) >50 (2D6) μM | Ames (Ames): Negative

— publication PMC10794144, “A novel antibiotic class targeting the lipopolysaccharide transporter” (Nature, 2024)
